Results from US12384798B2, “ACC inhibitor and use thereof” (NANJING RUIJIE PHARMA CO., LTD., priority 2019, dated 2025).
Where two headings read alike, the source gives them in different places.

Columns and labels:
ACC1 [1] = details: ACC isolated from rat, mouse, monkey and human; cited from earlier work
ACC2 [2] = details: ACC isolated from rat, mouse, monkey and human; cited from earlier work
[3] = Pharmacokinetic evaluation of compounds in rats; format: in vivo; details: SD rats; for Kp / Vd / AUC(0-inf) / Cmax / Tmax / half-life / bioavailability: male, rat; for Kp: liver/plasma, liver collected 1 h, 3 h and 24 h after dosage, read-out: L/P liver-to-blood ratio; for Vd / AUC(0-inf) / Cmax / Tmax / half-life / bioavailability: plasma; for Vd: intravenous, 2 mg/kg, read-out: Vss; for bioavailability: read-out: F (%) bioavailability
Description: This example was intended to investigate the pharmacokinetics of the compounds of the present invention and ND630 in SD rats under the conditions of intravenous (iv) and intragastric administration (po). Unless otherwise stated, the experimental reagents and instruments are all commercially available. ND630 was Gilead's acetyl CoA carboxylase (ACC) inhibitor, with a structural formula as follows: […]
Formulation of compound: by taking a physiological saline solution of 5% DMSO+5% Solutol HS 15+90% HP-β-CD (20% w/v) as a solvent, a compound with the final concentration of 0.4 mg/mL was formulated for intravenous administration and a compound with the final concentration of 1 mg/mL was formulated for orally intragastric administration.
Animal feeding and management: male SD rats aged 6-8 weeks and weighing between 180-250 g were selected and raised in transparent resin plastic rate cages. Before administration, the rats were fasted overnight for at least 16 hours, and the feed supply was restored 4 hours after administration.
For the intravenous injection administration group, the dose was 2 mg/kg, and 0.2 mL of blood samples was collected from the jugular vein 5 min, 15 min, 30 min, 1 h, 3 h, 5 h, and 8 h after dosage. For the orally intragastric administration group, the dose was 10 mg/kg, and 0.2 mL of blood samples was collected from the jugular vein 15 min, 30 min, 1 h, 3 h, 5 h, 8 h, 12 h, and 24 h after dosage; and liver tissues were collected 1 h, 3 hand 24 h after dosage.
After the blood were sampled, the plasma was quickly separated by centrifugation at 4000 rpm (10 minutes, 4° C.). After the liver tissues were sampled, a mixture of methanol:water (1:1, v/v) three times the volume of the liver tissues was added to prepare a homogenate. 50 μL of plasma or homogenate sample was drawn, and 200 μL of an internal standard (30 ng/mL terfenadine, and acetonitrile) was added for precipitation. Centrifuging was carried out at 4° C. and 15,400 g for 10 minutes, and a supernatant was taken for analysis.
The concentration of a target compound was detected by LC-MS/MS. According to the plasma concentration-time curve, pharmacokinetic parameters were calculated by using a non-compartmental model (NCA) of software WinNonlin 7.0. […] Table 4. Pharmacokinetic results

HepG2 cells = assay: [2-14C]-acetate incorporation assay in HepG2 cells; format: cell-based; details: for IC50: Homo sapiens, HepG2 cells, read-out: IC50 [2-14C]-acetate binding assay
Method: [2-^14C]-Acetate Incorporation Assay in HepG2 Cells
DMEM (GIBCO, catalog number: 11965-092) was used as a complete culture medium for HepG2 cells (ATCC, catalog number: HB-8064). 10% fetal bovein serum (FBS, GIBCO, catalog number: 10099-141), penicillin (100 units/mL) and streptomycin (100 μg/mL) (Pen/Strep, GIBCO, catalog number: 15140-122) were added to a DMEM culture medium.
HepG2 cells were cultured in a 37° C. incubator holding 5% carbon dioxide, and passaged every 2-3 days.
The HepG2 cells were spread on a 24-well plate (Corning, catalog number: 3524) at a density of 2×10^5 cells-well, 500 μL per well, and cultured in a 37° C. incubator holding 5% carbon dioxide. On the fourth day of culture, 50 μL of a compound diluted at a gradient of 1:3 was added, with the final concentration of DMSO of 0.5% (v/v); and the cells were cultured for 1 hour in the incubator. 1 μCi [2-^14C]-sodium acetate (Perkin Elmer, catalog number: NEC085H001MC) was added to each well, and culture was conducted for another 5 hours. The culture medium in each well was transferred to a 15 mL centrifugal tube (BD, catalog number: 352096); 0.5 mL of 0.1 M NaOH was added; the cells were blown and washed repeatedly, and then transferred to new centrifugal tubes. Then, 1 mL of ethanol and 0.17 mL of 50% KOH solution were added to each centrifugal tube, which was then treated in a water bath at 90° C. for 1 hour. Next, the mixture was cooled to room temperature; 5 mL of petroleum ether was added to each centrifugal tube, which was turned upside down several times for mixing; the resulting mixture was centrifuged for 5 minutes (Eppendorf, Model: 5702, 1000 rpm); and an upper organic phase was discarded. 1 mL of concentrated hydrochloric acid was added to each centrifugal tube and centrifuged for 5 minutes, and 4 mL of petroleum ether was transferred into a glass tube (18×180 mm). The sample in the glass tube was dried at 64° C., and then dissolved and resuspended by addition of 400 μL of spotting solution (chloroform:n-hexane=1:1). 50 μL of the dissolved sample was drawn by a pipette (BIOHIT, Model: Proline Plus), and spotted onto an Isoplate-96-microwell plate (Perkin Elmer, catalog number: 6005040), and 200 μL of ULTIMA GOLD scintillation solution (Perkin Elmer, catalog number: 77-16061) was added, standing for 5 minutes. Finally, MicroBeta (PerkinElmer, Model: 2450) was used to read scintillation signals.
A 4-parameter logistic model or sigmoidal dose-response model in XLFit 5.3.1.3 (2006-2011 I D Business Solutions Limited) was used to fit IC50: fit=(A+((B−A)/(1+((C/x)^D)))); where the x-axis represented the log of compound concentration, and the y-axis represented count per minute (CPM).

ACC2 [4] = target: ACC2 (Homo sapiens (Human), UniProt O00763); assay: In vitro ACC inhibition assay (ADP-Glo), ACC2; format: biochemical; details: for IC50: 0.5 nM ACC, 10 μM ATP, 5 μM acetyl-CoA, read-out: Enzymatic activity IC50 ACC2
Sequence of ACC2 (Homo sapiens (Human), UniProt O00763) (O00763 whole entry, species assumed): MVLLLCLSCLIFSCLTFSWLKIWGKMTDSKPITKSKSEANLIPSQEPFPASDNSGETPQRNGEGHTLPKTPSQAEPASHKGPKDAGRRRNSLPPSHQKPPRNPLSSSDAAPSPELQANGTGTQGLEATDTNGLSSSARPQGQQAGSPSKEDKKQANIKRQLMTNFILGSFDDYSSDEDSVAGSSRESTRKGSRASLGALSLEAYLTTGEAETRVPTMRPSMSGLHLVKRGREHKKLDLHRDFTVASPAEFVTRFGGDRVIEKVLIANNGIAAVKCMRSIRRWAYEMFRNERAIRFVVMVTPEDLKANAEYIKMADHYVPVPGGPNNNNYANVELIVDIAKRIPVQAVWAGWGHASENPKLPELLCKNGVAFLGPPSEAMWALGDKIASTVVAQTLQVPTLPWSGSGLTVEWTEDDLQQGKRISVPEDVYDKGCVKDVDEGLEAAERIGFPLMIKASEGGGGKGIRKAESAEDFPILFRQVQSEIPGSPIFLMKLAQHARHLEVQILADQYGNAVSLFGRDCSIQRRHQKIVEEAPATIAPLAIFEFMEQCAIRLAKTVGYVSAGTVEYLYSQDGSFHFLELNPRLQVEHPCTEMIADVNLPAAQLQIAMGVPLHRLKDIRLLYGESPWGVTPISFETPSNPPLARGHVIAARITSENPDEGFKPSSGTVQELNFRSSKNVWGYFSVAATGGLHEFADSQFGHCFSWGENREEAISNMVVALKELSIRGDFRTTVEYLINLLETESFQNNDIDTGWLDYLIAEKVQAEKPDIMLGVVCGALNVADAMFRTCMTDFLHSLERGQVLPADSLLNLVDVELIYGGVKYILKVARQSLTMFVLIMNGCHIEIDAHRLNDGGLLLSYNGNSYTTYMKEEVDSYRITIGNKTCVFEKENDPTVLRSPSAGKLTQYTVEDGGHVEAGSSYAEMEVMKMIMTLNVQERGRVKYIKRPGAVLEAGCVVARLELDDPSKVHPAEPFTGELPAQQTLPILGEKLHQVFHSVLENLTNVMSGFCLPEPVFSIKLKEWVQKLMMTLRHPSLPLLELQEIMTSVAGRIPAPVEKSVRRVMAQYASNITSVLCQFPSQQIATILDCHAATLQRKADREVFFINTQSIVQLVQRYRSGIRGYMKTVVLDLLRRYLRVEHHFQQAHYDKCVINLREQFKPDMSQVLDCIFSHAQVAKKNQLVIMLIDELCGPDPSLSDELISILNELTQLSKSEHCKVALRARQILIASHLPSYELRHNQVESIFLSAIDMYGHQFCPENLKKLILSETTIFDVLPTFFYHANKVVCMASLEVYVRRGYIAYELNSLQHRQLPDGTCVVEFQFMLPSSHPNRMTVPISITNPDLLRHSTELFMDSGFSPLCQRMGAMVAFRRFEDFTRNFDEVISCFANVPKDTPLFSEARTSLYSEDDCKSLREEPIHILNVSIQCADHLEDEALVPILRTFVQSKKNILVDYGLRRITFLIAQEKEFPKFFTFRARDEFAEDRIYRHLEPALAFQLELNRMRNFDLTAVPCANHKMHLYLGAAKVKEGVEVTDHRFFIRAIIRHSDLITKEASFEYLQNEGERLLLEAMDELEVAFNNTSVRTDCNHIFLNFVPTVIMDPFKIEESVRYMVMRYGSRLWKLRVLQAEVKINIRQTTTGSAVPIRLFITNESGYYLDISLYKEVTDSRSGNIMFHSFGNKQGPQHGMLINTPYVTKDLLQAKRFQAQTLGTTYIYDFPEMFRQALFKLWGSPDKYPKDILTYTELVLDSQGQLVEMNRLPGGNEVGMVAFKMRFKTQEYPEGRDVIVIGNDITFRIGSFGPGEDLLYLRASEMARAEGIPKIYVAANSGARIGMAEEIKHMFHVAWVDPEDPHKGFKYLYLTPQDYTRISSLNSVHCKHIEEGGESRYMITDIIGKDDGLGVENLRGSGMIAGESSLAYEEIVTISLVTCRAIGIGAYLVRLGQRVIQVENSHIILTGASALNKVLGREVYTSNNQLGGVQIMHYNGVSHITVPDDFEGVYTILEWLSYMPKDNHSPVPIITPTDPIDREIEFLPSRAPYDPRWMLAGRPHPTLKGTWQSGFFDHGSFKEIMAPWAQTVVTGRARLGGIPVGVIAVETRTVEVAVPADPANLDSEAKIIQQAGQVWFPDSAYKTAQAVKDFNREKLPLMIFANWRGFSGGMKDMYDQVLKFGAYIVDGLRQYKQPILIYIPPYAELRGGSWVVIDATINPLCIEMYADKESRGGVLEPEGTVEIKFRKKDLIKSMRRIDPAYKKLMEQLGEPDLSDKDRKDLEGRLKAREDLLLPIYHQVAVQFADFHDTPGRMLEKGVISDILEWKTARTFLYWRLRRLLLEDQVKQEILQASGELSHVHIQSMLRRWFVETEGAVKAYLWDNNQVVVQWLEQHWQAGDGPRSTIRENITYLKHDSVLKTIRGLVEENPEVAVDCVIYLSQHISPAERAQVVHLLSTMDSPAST
Method: (§1) An exemplary procedure for the in vitro ACC inhibition assay, which can be used to determine the inhibitory action of the compounds of the invention toward either ACC1 or ACC2, is as follows. The ADP-Glo™ kinase assay kit from Promega was used. The ADP-Glo™ kinase assay is a luminescent ADP detection assay to measure enzymatic activity by quantifying the amount of ADP produced during an enzyme reaction. The assay was performed in two steps; first, after the enzyme reaction, an equal volume of ADP-Glo™ reagent was added to terminate the reaction and deplete the remaining ATP. Then, the kinase detection reagent was added to simultaneously convert ADP to ATP and allow the newly synthesized ATP to be measured using a luciferase/luciferin reaction. Luminescence can be correlated to ADP concentrations by using an ATP-to-ADP conversion curve. The detailed procedure was as follows. 4.5 μL of a working solution was added to a 384-well plate. The compound was diluted at 1:3 in succession in DMSO. 0.5 μL of diluted compound solution was added to a 384-well white Optiplate assay plate. The plates were incubated at room temperature for 15 minutes. 5 μL of substrate working solution was added to each well to initiate the reaction. A final ACC reaction solution consisted of: 0.5 nM ACC, 10 μM ATP, 5 μM acetyl-CoA, and 15 mM NaHCO3; and the final concentrations of the compound were measured as follows: 1 μM, 0.333 μM, 0.111 μM, 0.037 μM, 0.0123 μM, 0.00411 μM, 0.00137 μM, 0.000457 μM, 0.000152 μM, and 0.000051 μM. The plates were incubated at room temperature for 30 minutes. 10 μL of ADP-Glo™ reagent was added, and the plates were incubated at room temperature for 40 minutes. 20 μL of kinase detection reagent was added. The plates were incubated at room temperature for 40 minutes, then read on a Perkin Elmer EnVision 2104 plate reader for luminescence in relative light unit (RLU).
(§2) Data for each concentration, as well as the positive and negative controls were averaged, and the standard deviation was calculated. Percent inhibition was calculated by the formula: 100×(average negative control−compound)/(average negative control−average positive control). The IC50 for each compound was calculated by fitting the data with a non-linear regression equation: Y=Bottom+(Top−Bottom)/(1+10^((Log IC50−X)×HillSlope)), where X is the log of compound concentration and Y is the percent inhibition.

ACC1 [5] = target: ACC1 (Homo sapiens (Human), UniProt Q13085); assay: In vitro ACC inhibition assay (ADP-Glo), ACC1; format: biochemical; details: for IC50: 0.5 nM ACC, 10 μM ATP, 5 μM acetyl-CoA, read-out: Enzymatic activity IC50 ACC1
Method: as §1, §2

[6] = iv 2 mg/kg, read-out: AUC0-∞ (iv)
[7] = iv 2 mg/kg, read-out: Cmax (iv)
[8] = iv 2 mg/kg, read-out: Tmax (iv)
[9] = iv 2 mg/kg, read-out: t1/2 (iv) (converted)
[10] = po 10 mg/kg, read-out: AUC0-∞ (po)
[11] = po 10 mg/kg, read-out: Cmax (po)
[12] = po 10 mg/kg, read-out: Tmax (po)
[13] = po 10 mg/kg, read-out: t1/2 (po) (converted)

| Cl [3] [mL/min/kg] | Kp ([3]; po 10 mg/kg) | Vd [3] [L/kg] | AUC(0-inf) [3, 6] [ng·h/mL] | Cmax [3, 7] [ng/mL] | Tmax [3, 8] [min] | half-life [3, 9] [min] | AUC(0-inf) [3, 10] [ng·h/mL] | Cmax [3, 11] [ng/mL] | Tmax [3, 12] [min] | half-life [3, 13] [min] | bioavailability ([3]; po 10 mg/kg, iv 2 mg/kg) [%] | IC50 (HepG2 cells) [nM] | inhibitory properties against ACC2 (in words) (ACC2 [4]) | IC50 (ACC2 [4]) [nM] | inhibitory properties against ACC1 (in words) (ACC1 [5]) | IC50 (ACC1 [5]) [nM] | Structure (SMILES) | IC50 (ACC1 [1]) [nM] | IC50 (ACC2 [2]) [nM] | inhibitory properties against HepG2 cells (in words) (HepG2 cells) |
| --- | --- | --- | --- | --- | --- | --- | --- | --- | --- | --- | --- | --- | --- | --- | --- | --- | --- | --- | --- | --- |
| – | – | – | – | – | – | – | – | – | – | – | – | – | – | – | – | – | O=C(c1c2ccccc2cc2ccccc12)N1CCC(N2CCC[C@@H](C(=O)N3CCOCC3)C2)CC1 [CP-640186] | ~60 | ~60 | – |
| 12.2 | 5.5 to 41.9 | 0.48 | 2870 | 5630 | 4.98 | 63.6 | 5090 | 2880 | 24 | 39 | 35.8 | – | – | – | – | – | COc1ccccc1[C@H](Cn1c(=O)n(C(C)(C)C(=O)O)c(=O)c2c(C)c(-c3ncco3)sc21)OC1CCOCC1 [ND630, reference compound] | – | – | – |
| – | – | – | – | – | – | – | – | – | – | – | – | 232 | – | – | – | – | COc1ccccc1[C@H](Cn1c(=O)n(CC2CC(C(=O)O)C2)c(=O)c2c(C)c(-c3ncco3)sc21)OC1CCOCC1 (stereo partly drawn) [c-1, (R)-3-((1-(2-(2-methoxyphenyl)-2-((tetrahydro-2H-pyran-4-yl)oxy)ethyl)-5-methyl-6-(oxazol-2-yl)-2,4-dioxa-1,4-dihydrothieno[2,3-d]pyrimidine-3(2H)-yl)methyl)cyclobutane-1-carboxylic acid] | – | – | – |
| – | – | – | – | – | – | – | – | – | – | – | – | 18.5 | good inhibitory properties | 3 | good inhibitory properties | 0.688 | COc1ccccc1[C@H](Cn1c(=O)n(C2CC(CC(=O)O)C2)c(=O)c2c(C)c(-c3ncco3)sc21)OC1CCOCC1 (stereo partly drawn) [c-3, (R)-2-(3-(1-(2-(2-methoxyphenyl)-2-((tetrahydro-2H-pyran-4-yl)oxy)ethyl)-5-methyl-6-(oxazol-2-yl)-2,4-dioxo-1,4-dihydrothieno[2,3-d]pyrimidine-3(2H)-yl)cyclobutyl)acetic acid] | – | – | good inhibitory properties |
| 10.7 | 9.46 to 17.3 | 0.826 | 3120 | 4100 | 5 | 104 | 15700 | 7780 | 30 | 279 | 99.6 | 13.1 | good inhibitory properties | 9 | good inhibitory properties | 0.836 | COc1ccccc1[C@H](Cn1c(=O)n([C@H]2C[C@H](CC(=O)O)C2)c(=O)c2c(C)c(-c3ncco3)sc21)OC1CCOCC1 [c-3-1, 2-((1R,3r)-3-(1-((R)-2-(2-methoxyphenyl)-2-((tetrahydro-2H-pyran-4-yl)oxy)ethyl)-5-methyl-6-(oxazol-2-yl)-2,4-dioxo-1,2-dihydrothieno[2,3-d]pyrimidine-3(4H)-yl)cyclobutyl)acetic acid] | – | – | good inhibitory properties |
| 25.1 | 20.6 to 30 | 0.839 | 1390 | 3110 | 5 | 54 | 4350 | 3240 | 24 | 289 | 62.3 | 18 | good inhibitory properties | 8 | good inhibitory properties | 1.12 | COc1ccccc1[C@H](Cn1c(=O)n([C@H]2C[C@@H](CC(=O)O)C2)c(=O)c2c(C)c(-c3ncco3)sc21)OC1CCOCC1 [c-3-2, 2-((1S,3s)-3-(1-((R)-2-(2-methoxyphenyl)-2-((tetrahydro-2H-pyran-4-yl)oxy)ethyl)-5-methyl-6-(oxazol-2-yl)-2,4-dioxo-1,2-dihydrothieno[2,3-d]pyrimidine-3(4H)-yl)cyclobutyl)acetic acid] | – | – | good inhibitory properties |
